One may read the IC50 as the concentration needed to halve the response being measured.

For one assay, the target named is TBK1 (Homo sapiens (Human), UniProt Q9UHD2). Briefly: TBK1 low ATP kinase assay (in vitro assay 1). Conditions: TBK1 low ATP kinase assay IC50, in vitro assay 1. The format is biochemical.
TBK1, sequence (Q9UHD2 whole entry): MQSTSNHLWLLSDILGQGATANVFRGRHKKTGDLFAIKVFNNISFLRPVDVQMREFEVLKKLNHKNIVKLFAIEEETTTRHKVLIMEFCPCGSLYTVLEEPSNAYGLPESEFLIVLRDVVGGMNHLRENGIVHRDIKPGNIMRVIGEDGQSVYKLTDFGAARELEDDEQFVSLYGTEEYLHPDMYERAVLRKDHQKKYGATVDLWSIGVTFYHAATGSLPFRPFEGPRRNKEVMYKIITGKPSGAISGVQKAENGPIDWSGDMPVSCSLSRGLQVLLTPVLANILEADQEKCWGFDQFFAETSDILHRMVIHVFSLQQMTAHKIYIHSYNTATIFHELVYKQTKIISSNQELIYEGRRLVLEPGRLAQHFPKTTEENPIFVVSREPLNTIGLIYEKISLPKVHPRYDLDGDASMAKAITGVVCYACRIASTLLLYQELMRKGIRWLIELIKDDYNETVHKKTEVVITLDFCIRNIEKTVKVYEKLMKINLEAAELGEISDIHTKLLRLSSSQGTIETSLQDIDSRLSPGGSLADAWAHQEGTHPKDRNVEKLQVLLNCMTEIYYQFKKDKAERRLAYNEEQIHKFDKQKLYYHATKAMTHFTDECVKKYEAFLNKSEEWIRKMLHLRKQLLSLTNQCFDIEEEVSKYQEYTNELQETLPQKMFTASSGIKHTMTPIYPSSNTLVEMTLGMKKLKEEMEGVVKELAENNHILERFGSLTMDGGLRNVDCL
Consider `Cc1cc(-c2ccc3nc(Nc4cc(C(C)N5CCN(C(=O)CC(F)(F)F)CC5)ccn4)[nH]c3c2)ncn1` (single isomer, unassigned) [Example 30.03.01.B, 3,3,3-trifluoro-1-{4-[(1S or 1R)-1-(2-{[6-(6-methylpyrimidin-4-yl)-1H-benzimidazol-2-yl]amino}pyridin-4-yl)ethyl]piperazin-1-yl}propan-1-one], for which half-maximal inhibition (IC50) required 2.15 nM.

Still in this assay, the particulars now being: in vitro assay 1, read-out: TBK1 low ATP kinase assay IC50.
For `CCOc1nccc(-c2ccc3nc(Nc4cc(C(C)N5CCN(C(=O)CC(F)(F)F)CC5)ccn4)[nH]c3c2)n1` (single isomer, unassigned) [Example 26.03.01.A, 1-{4-[(1R or 1S)-1-(2-{[6-(2-ethoxypyrimidin-4-yl)-1H-benzimidazol-2-yl]amino}pyridin-4-yl)ethyl]piperazin-1-yl}-3,3,3-trifluoropropan-1-one], the concentration for half-maximal inhibition (IC50) is 2.98 nM.
The same measure, in the same setting: with `Cn1ccc(-c2ccc3nc(Nc4cc(CN5CCN(C(=O)CC6CC6)CC5)ccn4)[nH]c3c2)n1` [Example 40.02, 2-cyclopropyl-1-{4-[(2-{[6-(1-methyl-1H-pyrazol-3-yl)-1H-benzimidazol-2-yl]amino}pyridin-4-yl)methyl]piperazin-1-yl}ethanone] the figure was 1270 nM; with `Cc1noc(-c2ccc3nc(Nc4cc(CN5CCN(C(=O)OC(C)(C)C)C[C@H]5C)ccn4)[nH]c3c2)n1` [Example 16.03.01, tert-butyl (3R)-3-methyl-4-[(2-{[6-(3-methyl-1,2,4-oxadiazol-5-yl)-1H-benzimidazol-2-yl]amino}pyridin-4-yl)methyl]piperazine-1-carboxylate], 125 nM.
On the same count and under the same terms, for `Cc1cc(-c2ccc3nc(Nc4cc(CN5CCN(C(=O)CC6CC6)CC5)ccn4)[nH]c3c2)ncn1` [Example 30.01.03, 2-cyclopropyl-1-{4-[(2-{[6-(6-methylpyrimidin-4-yl)-1H-benzimidazol-2-yl]amino}pyridin-4-yl)methyl]piperazin-1-yl}ethanone] the value was 16.9 nM; for `COc1cc(-c2ccc3nc(Nc4cc(C(C)N5CCN(C(=O)C6CC6)CC5)ccn4)[nH]c3c2)ncn1` (single isomer, unassigned) [Example 34.03.02.B, cyclopropyl{4-[(1S or 1R)-1-(2-{[6-(6-methoxypyrimidin-4-yl)-1H-benzimidazol-2-yl]amino}pyridin-4-yl)ethyl]piperazin-1-yl}methanone], 7.22 nM; for `CC(c1ccnc(Nc2nc3ccc(-c4cc(C(F)F)ncn4)cc3[nH]2)c1)N1CCN(C(=O)OC(C)(C)C)CC1` (single isomer, unassigned) [Example 174.01, tert-butyl 4-{(1R or 1S)-1-[2-({6-[6-(difluoromethyl)pyrimidin-4-yl]-1H-benzimidazol-2-yl}amino)pyridin-4-yl]ethyl}piperazine-1-carboxylate], 11.1 nM.
The same measure, in the same setting: for `CC(c1ccnc(Nc2nc3ccc(-c4cnn(CC5CCCC5)c4)cc3[nH]2)c1)N1CCN(C(=O)OC(C)(C)C)CC1` (single isomer, unassigned) [Example 71.01, tert-butyl 4-{(1R or 1S)-1-[2-({6-[1-(cyclopentylmethyl)-1H-pyrazol-4-yl]-1H-benzimidazol-2-yl}amino)pyridin-4-yl]ethyl}piperazine-1-carboxylate] the value was 100 nM; for `N#Cc1cc(-c2ccc3nc(Nc4cc(CN5CCN(C(=O)CC(F)(F)F)CC5)ccn4)[nH]c3c2)ncn1` [Example 77.01, 6-{2-[(4-{[4-(3,3,3-trifluoropropanoyl)piperazin-1-yl]methyl}pyridin-2-yl)amino]-1H-benzimidazol-6-yl}pyrimidine-4-carbonitrile], 9.2 nM.
With `CCOc1cnc(C)cc1-c1ccc2nc(Nc3cc(CN4CCN(C(=O)CC5CC5)CC4)ccn3)[nH]c2c1` [Example 09.03, 2-cyclopropyl-1-{4-[(2-{[6-(5-ethoxy-2-methylpyridin-4-yl)-1H-benzimidazol-2-yl]amino}pyridin-4-yl)methyl]piperazin-1-yl}ethanone], the IC50 was 324 nM.
On the same count and under the same terms, with `COc1c(NC2CCC2)ncnc1-c1ccc2nc(Nc3cc(C(C)N4CCN(C(=O)OC(C)(C)C)CC4)ccn3)[nH]c2c1` (single isomer, unassigned) [Example 114.01, tert-butyl 4-{(1R or 1S)-1-[2-({6-[6-(cyclobutylamino)-5-methoxypyrimidin-4-yl]-1H-benzimidazol-2-yl}amino)pyridin-4-yl]ethyl}piperazine-1-carboxylate] the figure was 61 nM.
Still for that read-out and setting: for `Cc1ccnc(N2CCN(Cc3ccnc(Nc4nc5ccc(-c6nc(C)no6)cc5[nH]4)c3)CC2)c1` [Example 101.30, 6-(3-methyl-1,2,4-oxadiazol-5-yl)-N-(4-{[4-(4-methylpyridin-2-yl)piperazin-1-yl]methyl}pyridin-2-yl)-1H-benzimidazol-2-amine] the value was 560 nM.
Same read-out and setting: with `Cc1noc(-c2ccc3nc(Nc4cc(CN5CCN(c6cnccn6)CC5)ccn4)[nH]c3c2)n1` [Example 101.13, 6-(3-methyl-1,2,4-oxadiazol-5-yl)-N-(4-{[4-(pyrazin-2-yl)piperazin-1-yl]methyl}pyridin-2-yl)-1H-benzimidazol-2-amine] the figure was 360 nM.
Regarding `CCOc1c(-c2ccncc2OC)ccc2nc(Nc3cc(CN4CCN(C(=O)C5CCC5)CC4)ccn3)[nH]c12` [Example 51.04, cyclobutyl{4-[(2-{[7-ethoxy-6-(3-methoxypyridin-4-yl)-1H-benzimidazol-2-yl]amino}pyridin-4-yl)methyl]piperazin-1-yl}methanone], the IC50 came out at 203 nM.
With `CC(c1ccnc(Nc2nc3ccc(-c4cnn(CC5(Cl)CC5)c4)cc3[nH]2)c1)N1CCN(C(=O)OC(C)(C)C)CC1` (single isomer, unassigned) [Example 69.01, tert-butyl 4-[(1R or 1S)-1-{2-[(6-{1-[(1-chlorocyclopropyl)methyl]-1H-pyrazol-4-yl}-1H-benzimidazol-2-yl)amino]pyridin-4-yl}ethyl]piperazine-1-carboxylate], the IC50 is 12 nM.
Same read-out and setting: with `CC(c1ccnc(Nc2nc3ccc(-c4cc(OCC5CC5)ncn4)cc3[nH]2)c1)N1CCN(C(=O)OC(C)(C)C)CC1` (single isomer, unassigned) [Example 85.02, tert-Butyl 4-{(1R or 1S)-1-[2-({6-[6-(cyclopropylmethoxy)pyrimidin-4-yl]-1H-benzimidazol-2-yl}amino)pyridin-4-yl]ethyl}piperazine-1-carboxylate] the figure was 14 nM; with `COc1c(-c2ccc3nc(Nc4cc(CN5CCN(C(=O)OC(C)(C)C)CC5)ccn4)[nH]c3c2)ncnc1N(C)C` [Example 107.01.01, tert-butyl 4-{[2-({6-[6-(dimethylamino)-5-methoxypyrimidin-4-yl]-1H-benzimidazol-2-yl}amino)pyridin-4-yl]methyl}piperazine-1-carboxylate], 52 nM; with `CCS(=O)(=O)N1CCN(Cc2ccnc(Nc3nc4ccc(-c5ncncc5OC)cc4[nH]3)c2)CC1` [Example 35.01.08, N-(4-{[4-(ethylsulfonyl)piperazin-1-yl]methyl}pyridin-2-yl)-6-(5-methoxypyrimidin-4-yl)-1H-benzimidazol-2-amine], 24.3 nM.
On the same count and under the same terms, for `Cc1nc(-c2ccc3nc(Nc4cc(CN5CCN(C(=O)CC(F)(F)F)CC5)ccn4)[nH]c3c2)c2ccsc2n1` [Example 104.01, 3,3,3-trifluoro-1-{4-[(2-{[6-(2-methylthieno[2,3-d]pyrimidin-4-yl)-1H-benzimidazol-2-yl]amino}pyridin-4-yl)methyl]piperazin-1-yl}propan-1-one] the value was 2600 nM; for `Cc1nccc(-c2ccc3nc(Nc4cc(CN5CCN(C(=O)CC(F)(F)F)CC5)ccn4)[nH]c3c2)n1` [Example 24.01.01, 3,3,3-trifluoro-1-{4-[(2-{[6-(2-methylpyrimidin-4-yl)-1H-benzimidazol-2-yl]amino}pyridin-4-yl)methyl]piperazin-1-yl}propan-1-one], 35.4 nM; for `CN(c1cc(-c2ccc3nc(Nc4cc(CN5CCN(C(=O)OC(C)(C)C)CC5)ccn4)[nH]c3c2)ncn1)C1CCC1` [Example 156.01, tert-butyl 4-({2-[(6-{6-[cyclobutyl(methyl)amino]pyrimidin-4-yl}-1H-benzimidazol-2-yl)amino]pyridin-4-yl}methyl)piperazine-1-carboxylate], 38 nM.
On the same count and under the same terms, for `O=C(C1CC1)N1CCN(Cc2ccnc(Nc3nc4ccc(-c5cnc(C6CC6)nc5)cc4[nH]3)c2)CC1` [Example 45.04.01, cyclopropyl{4-[(2-{[6-(2-cyclopropylpyrimidin-5-yl)-1H-benzimidazol-2-yl]amino}pyridin-4-yl)methyl]piperazin-1-yl}methanone] the value was 2240 nM; for `O=C(CC(F)(F)F)N1CCN(Cc2ccnc(Nc3nc4ccc(-c5ncnc6sccc56)cc4[nH]3)c2)CC1` [Example 105.01, 3,3,3-trifluoro-1-{4-[(2-{[6-(thieno[2,3-d]pyrimidin-4-yl)-1H-benzimidazol-2-yl]amino}pyridin-4-yl)methyl]piperazin-1-yl}propan-1-one], 270 nM; for `CC(C)(C)OC(=O)N1CCN(Cc2ccnc(Nc3nc4ccc(-c5cc(OCC6(C(F)(F)F)CC6)ncn5)cc4[nH]3)c2)CC1` [Example 158.01, tert-butyl 4-[(2-{[6-(6-{[1-(trifluoromethyl)cyclopropyl]methoxy}pyrimidin-4-yl)-1H-benzimidazol-2-yl]amino}pyridin-4-yl)methyl]piperazine-1-carboxylate], 160 nM.
For the compound `Cc1noc(-c2ccc3nc(Nc4cc(C(C)N5CCN(C(=O)C6(C(F)(F)F)CC6)CC5)ccn4)[nH]c3c2)n1` (single isomer, unassigned) [Example 16.06.04, {4-[(1R or 1S)-1-(2-{[6-(3-methyl-1,2,4-oxadiazol-5-yl)-1H-benzimidazol-2-yl]amino}pyridin-4-yl)ethyl]piperazin-1-yl}[1-(trifluoromethyl)cyclopropyl]methanone], the IC50 came out at 21.7 nM.
Still for that read-out and setting: with `Cc1nccc(-c2ccc3nc(Nc4cc(C(C)N5CCN(C(=O)C6CC6)CC5)ccn4)[nH]c3c2)n1` (racemic) [Example 24.04.01, (rac)-cyclopropyl{4-[1-(2-{[6-(2-methylpyrimidin-4-yl)-1H-benzimidazol-2-yl]amino}pyridin-4-yl)ethyl]piperazin-1-yl}methanone] the figure was 9.19 nM.

(Values after patent US10894784B2, “Heteroarylbenzimidazole compounds” (BAYER PHARMA AKTIENGESELLSCHAFT, priority 2015, dated 2021).)
